Measured values reported in US7932270B2 (Cytokinetics, Inc., priority 2006, dated 2011).
Values belong to the compound of their own block, whether it stands above or below them.

Target: T1, chicken gizzard smooth muscle myosin subfragment-1 chemically crosslinked to cardiac or skeletal actin (Gallus gallus, UniProt P10587)
T1 construct: chicken gizzard smooth muscle myosin subfragment-1; from tissue; host or cells: chicken gizzard
Assay: Smooth muscle myosin ATPase dose response assay (pyruvate kinase/horseradish peroxidase/pyruvate oxidase-coupled, amplex red fluorescence)
Format: biochemical
Settings: read-out: IC50 Arithmetic Mean
Summary of the method: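 Amplex red fluorescence (480 nm excitation, 615 nm emission) tracked ATP hydrolysis by smooth muscle S1 crosslinked to actin with carbodiimide/N-hydroxysuccinimide. Reactions contained 0.15 mM ATP and 100 mM KCl at pH 7.00, 22° C. IC50 came from a four-parameter logistic fit.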

T1 sequence (P02607 2-151): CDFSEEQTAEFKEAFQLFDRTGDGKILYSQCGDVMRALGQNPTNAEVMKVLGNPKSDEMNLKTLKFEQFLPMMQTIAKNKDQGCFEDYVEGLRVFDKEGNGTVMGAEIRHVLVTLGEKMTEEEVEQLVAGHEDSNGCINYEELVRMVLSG
T1 sequence (P10587 84-789): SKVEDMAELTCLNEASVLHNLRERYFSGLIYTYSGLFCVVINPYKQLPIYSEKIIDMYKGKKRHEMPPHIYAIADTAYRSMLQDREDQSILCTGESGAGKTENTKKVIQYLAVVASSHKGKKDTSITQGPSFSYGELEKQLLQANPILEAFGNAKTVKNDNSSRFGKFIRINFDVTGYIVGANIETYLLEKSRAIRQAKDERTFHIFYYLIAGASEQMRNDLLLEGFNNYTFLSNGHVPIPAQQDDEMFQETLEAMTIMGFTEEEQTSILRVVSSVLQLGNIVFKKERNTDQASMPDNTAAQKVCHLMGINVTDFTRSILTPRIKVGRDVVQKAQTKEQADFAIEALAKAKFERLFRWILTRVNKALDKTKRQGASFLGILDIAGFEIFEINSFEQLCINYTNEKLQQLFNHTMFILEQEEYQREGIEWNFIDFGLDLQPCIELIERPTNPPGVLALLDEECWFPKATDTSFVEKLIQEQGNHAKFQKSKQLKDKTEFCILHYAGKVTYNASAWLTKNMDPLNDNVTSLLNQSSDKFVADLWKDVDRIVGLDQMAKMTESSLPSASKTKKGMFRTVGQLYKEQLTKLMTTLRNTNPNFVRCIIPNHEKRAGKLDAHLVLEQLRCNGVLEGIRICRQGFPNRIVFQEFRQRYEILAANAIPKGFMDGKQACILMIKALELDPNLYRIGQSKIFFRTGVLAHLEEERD

IC50: 151 nM
SMILES: CC(C)(CNC(=O)c1ccc(-c2ccccc2C#N)nc1NCCc1cccc(F)c1)NC=O [N-(2-carbonylamino-2-methylpropyl)(6-(2-cyanophenyl)-2-{[2-(3-fluorophenyl)ethyl]amino}(3-pyridyl))carboxamide]

IC50: 136 nM
SMILES: Cn1cc(-c2ccc(C(=O)NCc3cccc(CN)n3)c(NCCc3cccc(F)c3)n2)cn1 [N-{[6-(aminomethyl)(2-pyridyl)]methyl}(2-{[2-(3-fluorophenyl)ethyl]amino}-6-(1-methylpyrazol-4-yl)(3-pyridyl))carboxamide]

IC50: 683 nM
SMILES: O=C(NCc1ccsc1)c1ccc(-c2ccccc2)nc1NCCc1ccccn1 [{6-phenyl-2-[(2-(2-pyridyl)ethyl)amino](3-pyridyl)}-N-(3-thienylmethyl)carboxamide]

IC50: 17 nM
SMILES: N#Cc1ccccc1-c1ccc(C(=O)NCc2cccnc2NCCCN)c(NCCc2cccc(F)c2)n1 [N-({2-[(3-aminopropyl)amino](3-pyridyl)}methyl)(6-(2-cyanophenyl)-2-{[2-(3-fluorophenyl)ethyl]amino}(3-pyridyl))carboxamide]

IC50: 44 nM
SMILES: O=C(NCc1cccnc1)c1ccc(-c2cn[nH]c2)nc1NCCc1cccc(F)c1 [(2-{[2-(3-fluorophenyl)ethyl]amino}-6-pyrazol-4-yl(3-pyridyl))-N-(3-pyridylmethyl)carboxamide]

IC50: 12200 nM
SMILES: N#Cc1ccccc1-c1ccc(C(=O)NC[C@H]2CNCCN2)c(NCCc2cccc(F)c2)n1 [N-[((2R)piperazin-2-yl)methyl](6-(2-cyanophenyl)-2-{[2-(3-fluorophenyl)ethyl]amino}(3-pyridyl))carboxamide]

IC50: 444 nM
SMILES: N#Cc1ccccc1-c1ccc(C(=O)NCCNCCN)c(NCCc2cccc(F)c2)n1 [N-{2-[(2-aminoethyl)amino]ethyl}(6-(2-cyanophenyl)-2-{[2-(3-fluorophenyl)ethyl]amino}(3-pyridyl))carboxamide]

IC50: 39500 nM
SMILES: NCc1ccc(-c2ccccc2)nc1NCCc1cccc(F)c1 [[3-(aminomethyl)-6-phenyl(2-pyridyl)][2-(3 fluorophenyl)ethyl]amine]

IC50: 399 nM
SMILES: C[C@@H](N)CNC(=O)c1ccc(-c2ccccc2C#N)nc1NCCc1cccc(F)c1 [N-((2R)-2-aminopropyl)(6-(2-cyanophenyl)-2-{[2-(3-fluorophenyl)ethyl]amino}(3-pyridyl))carboxamide]

IC50: 669 nM
SMILES: N#Cc1ccccc1-c1ccc(C(=O)NC[C@H](N)C(N)=O)c(NCCc2cccc(F)c2)n1 [N-((2S)-2-amino-2-carbamoylethyl)(6-(2-cyanophenyl)-2-{[2-(3-fluorophenyl)ethyl]amino}(3-pyridyl))carboxamide]

IC50: 160 nM
SMILES: O=C(NCc1cccnc1)c1ccc(-c2ccccc2)nc1NCCc1ccccc1Cl [(2-{[2-(2-chlorophenyl)ethyl]amino}-6-phenyl(3-pyridyl))-N-(3-pyridylmethyl)carboxamide]

IC50: 19 nM
SMILES: N#Cc1ccccc1-c1ccc(C(=O)NCc2cccc(CNCCN)n2)c(NCCc2cccc(F)c2)n1 [N-[(6-{[(2-aminoethyl)amino]methyl}(2-pyridyl))methyl](6-(2-cyanophenyl)-2-{[2-(3-fluorophenyl)ethyl]amino}(3-pyridyl))carboxamide]

IC50: 2320 nM
SMILES: CNC(=O)[C@@H](N)CNC(=O)c1ccc(-c2ccccc2C#N)nc1NCCc1cccc(F)c1 [(2S)-2-amino-3-[(6-(2-cyanophenyl)-2-{[2-(3-fluorophenyl)ethyl]amino}(3-pyridyl))carbonylamino]-N-methylpropanamide]

IC50: 26 nM
SMILES: N#Cc1ccccc1-c1ccc(C(=O)NCc2cnccn2)c(NCCc2cccc(F)c2)n1 [(6-(2-cyanophenyl)-2-{[2-(3-fluorophenyl)ethyl]amino}(3-pyridyl))-N-(pyrazin-2-ylmethyl)carboxamide]

IC50: 743 nM
SMILES: COC(=O)[C@@H](C)NC(=O)c1ccc(-c2ccccc2C#N)nc1NCCc1cccc(F)c1 [methyl (2R)-2-[(6-(2-cyanophenyl)-2-{[2-(3-fluorophenyl)ethyl]amino}(3-pyridyl))carbonylamino]propanoate]

IC50: 318 nM
SMILES: N#Cc1ccccc1-c1ccc(C(=O)NCCCO)c(NCCc2cccc(F)c2)n1 [(6-(2-cyanophenyl)-2-{[2-(3-fluorophenyl)ethyl]amino}(3-pyridyl))-N-(3-hydroxypropyl)carboxamide]

Second part, the compound before the results:

SMILES: Cn1cc(-c2nc(NCCc3cccc(F)c3)c(C(=O)NCC(O)CO)cc2F)cn1 (stereo not shown) [N-(2,3-dihydroxypropyl)(5-fluoro-2-{[2-(3-fluorophenyl)ethyl]amino}-6-(1-methylpyrazol-4-yl)(3-pyridyl))carboxamide]
IC50: 307 nM

SMILES: N#Cc1ccccc1-c1ccc(C(=O)N[C@H]2CCCNC2=O)c(NCCc2cccc(F)c2)n1 [N-((3S)-2-oxo(3-piperidyl))(6-(2-cyanophenyl)-2-{[2-(3-fluorophenyl)ethyl]amino}(3-pyridyl))carboxamide]
IC50: 5610 nM

SMILES: N#Cc1ccccc1-c1ccc(C(=O)NCC2CCCN(CCN)C2=O)c(NCCc2cccc(F)c2)n1 (stereo not shown) [N-{[1-(2-aminoethyl)-2-oxo(3-piperidyl)]methyl}(6-(2-cyanophenyl)-2-{[2-(3-fluorophenyl)ethyl]amino}(3-pyridyl))carboxamide]
IC50: 31 nM

SMILES: COc1ccc(CNC(=O)c2ccc(-c3ccccc3C#N)nc2NCCc2cccc(F)c2)cn1 [(6-(2-cyanophenyl)-2-{[2-(3-fluorophenyl)ethyl]amino}(3-pyridyl))-N-[(6-methoxy(3-pyridyl))methyl]carboxamide]
IC50: 8100 nM

SMILES: C[C@H](CNC(=O)c1cc(F)c(-c2cn[nH]c2)nc1NCCc1cccc(F)c1)NC(=O)OC(C)(C)C [N-{(2R)-2-[(tert-butoxy)carbonylamino]propyl}(5-fluoro-2-{[2-(3-fluorophenyl)ethyl]amino}-6-pyrazol-4-yl(3-pyridyl))carboxamide]
IC50: 8210 nM

SMILES: COc1ccccc1-c1ccc(C(=O)NCc2cccnc2)c(NCCc2ccccn2)n1 [{6-(2-methoxyphenyl)-2-[(2-(2-pyridyl)ethyl)amino](3-pyridyl)}-N-(3-pyridylmethyl)carboxamide]
IC50: 17900 nM

SMILES: CC(C)(C)OC(=O)NCCn1ccc(CNC(=O)c2ccc(-c3ccccc3C#N)nc2NCCc2cccc(F)c2)n1 [N-[(1-{2-[(tert-butoxy)carbonylamino]ethyl}pyrazol-3-yl)methyl](6-(2-cyanophenyl)-2-{[2-(3-fluorophenyl)ethyl]amino}(3-pyridyl))carboxamide]
IC50: 2730 nM

SMILES: N#Cc1ccccc1-c1ccc(C(=O)NCc2cccnc2)c(NCCc2cccs2)n1 [{6-(2-cyanophenyl)-2-[(2-(2-thienyl)ethyl)amino](3-pyridyl)}-N-(3-pyridylmethyl)carboxamide]
IC50: 29 nM

SMILES: CN1CCN(C(=O)CN)[C@@H](CNC(=O)c2ccc(-c3ccccc3C#N)nc2NCCc2cccc(F)c2)C1 [N-{[(2S)-1-(2-aminoacetyl)-4-methylpiperazin-2-yl]methyl}(6-(2-cyanophenyl)-2-{[2-(3-fluorophenyl)ethyl]amino}(3-pyridyl))carboxamide]
IC50: 1280 nM

SMILES: CNC(=O)N1CCC[C@@H]1CNC(=O)c1ccc(-c2ccccc2C#N)nc1NCCc1cccc(F)c1 [N-{[(2R)-1-(N-methylcarbamoyl)pyrrolidin-2-yl]methyl}(6-(2-cyanophenyl)-2-{[2-(3-fluorophenyl)ethyl]amino}(3-pyridyl))carboxamide]
IC50: 307 nM

SMILES: Cn1cc(-c2nc(NCCc3cccc(F)c3)c(C(=O)NC[C@H]3CCCN3C(=O)[C@H](CCCNC(=O)OC(C)(C)C)NC(=O)OC(C)(C)C)cc2F)cn1 [N-[((2R)-1-{(2S)-2,5-bis[(tert-butoxy)carbonylamino]pentanoyl}pyrrolidin-2-yl)methyl](5-fluoro-2-{[2-(3-fluorophenyl)ethyl]amino}-6-(1-methylpyrazol-4-yl)(3-pyridyl))carboxamide]
IC50: 19600 nM

SMILES: O=C1CNCC(CNC(=O)c2ccc(-c3ccn[nH]3)nc2NCCc2cccc(F)c2)N1 (stereo not shown) [(2-{[2-(3-fluorophenyl)ethyl]amino}-6-pyrazol-5-yl(3-pyridyl))-N-[(6-oxopiperazin-2-yl)methyl]carboxamide]
IC50: 6950 nM

SMILES: C[C@@H](CN)CNC(=O)c1cc(F)c(-c2cnn(C)c2)nc1NCCc1cccc(F)c1 [N-((2S)-3-amino-2-methylpropyl)(5-fluoro-2-{[2-(3-fluorophenyl)ethyl]amino}-6-(1-methylpyrazol-4-yl)(3-pyridyl))carboxamide]
IC50: 1050 nM

SMILES: Cn1cc(-c2ccc(C(=O)NC[C@H]3CCC(=O)N3CCCNC(=O)OC(C)(C)C)c(NCCc3cccc(F)c3)n2)cn1 [N-[((2R)-1-{3-[(tert-butoxy)carbonylamino]propyl}-5-oxopyrrolidin-2-yl)methyl](2-{[2-(3-fluorophenyl)ethyl]amino}-6-(1-methylpyrazol-4-yl)(3-pyridyl))carboxamide]
IC50: 1340 nM

SMILES: Cn1cc(-c2nc(NCCc3cccc(F)c3)c(C(=O)NC[C@H]3CCN3)cc2F)cn1 [N-[((2R)azetidin-2-yl)methyl](5-fluoro-2-{[2-(3-fluorophenyl)ethyl]amino}-6-(1-methylpyrazol-4-yl)(3-pyridyl))carboxamide]
IC50: 1580 nM

SMILES: Cn1cc(-c2ccc(C(=O)NCC3CCNC3=O)c(NCCc3cccc(F)c3)n2)cn1 (stereo not shown) [(2-{[2-(3-fluorophenyl)ethyl]amino}-6-(1-methylpyrazol-4-yl)(3-pyridyl))-N-[(2-oxopyrrolidin-3-yl)methyl]carboxamide]
IC50: 248 nM

SMILES: N#Cc1ccccc1-c1ccc(C(=O)NCc2ccc(N3CCOCC3)nc2)c(NCCc2cccc(F)c2)n1 [(6-(2-cyanophenyl)-2-{[2-(3-fluorophenyl)ethyl]amino}(3-pyridyl))-N-[(6-morpholin-4-yl(3-pyridyl))methyl]carboxamide]
IC50: 16900 nM

SMILES: CC(C)(C)OC(=O)NCCCN1C(=O)CC[C@H]1CNC(=O)c1ccc(-c2ccccc2C#N)nc1NCCc1cccc(F)c1 [N-[((2S)-1-{3-[(tert-butoxy)carbonylamino]propyl}-5-oxopyrrolidin-2-yl)methyl](6-(2-cyanophenyl)-2-{[2-(3-fluorophenyl)ethyl]amino}(3-pyridyl))carboxamide]
IC50: 4520 nM
